The numbers were not newly measured in US20140004177A1, “COX-2 INHIBITORS AND RELATED COMPOUNDS, AND SYSTEMS AND METHODS FOR DELIVERY THEREOF” (Strategic Science & Technologies, LLC, priority 2010, published 2014), which cites them from elsewhere.

Regarding `CS(=O)(=O)c1ccc(C2=C(c3ccccc3)C(=O)OC2)cc1` [rofecoxib], the pKa is 19.7.

Usually pKa stands for the negative logarithm of the acid dissociation constant.
